The target in assay [1] is T1, hCGRP receptor (CALCRL:RAMP1) (Homo sapiens, UniProt O60894+Q16602).
T1 construct: host or cells: GeneBLAzer CALCRL:RAMP1-CRE-bla Freestyle 293F
Kind of assay: CGRP receptor antagonist activity measured by cAMP assay (HTRF). The format is cell-based. Conditions: for Emax: read-out: hCGRP-R Efficacy Antag (%) Ave; for pIC50: GeneBLAzer CALCRL:RAMP1-CRE-bla Freestyle 293F cells, 30 minutes.

Assay [2] concerns the target T2, hAM2 receptor (CALCRL:RAMP3) (Homo sapiens, UniProt O60896+Q16602).
T2 construct: expressed in transfected cells; host or cells: GeneBLAzer CALCRL:RAMP3-CRE-bla Freestyle 293F
The assay can be described thus: AM2 receptor antagonist activity measured by cAMP assay (HTRF). In kind it is cell-based. Conditions: for Emax: read-out: hAM2-R Efficacy Antag (%) Ave; for pIC50: GeneBLAzer CALCRL:RAMP3-CRE-bla Freestyle 293F cells; for selectivity ratio CGRP/AM2: selectivity ratio for hCGRP over hAM2, calculated from the IC50 values.

Setting [3] is: % MPE: percent of the maximal possible effect, agonist human α-CGRP.
[4] abbreviates: % MPE: percent of the maximal possible effect, agonist human adrenomedullin.

SMILES strings stand for the structures. pIC50: −log10 of the molar value. Where two headings read alike, the source gives them in different places. Numbered stars: 1 amine (or outer) side, 2 acyl side, 3 side chain; on linkers, the order of the positions; unused ones are H or OH. Bridge positions count the residues as written; N and C are the ends. Square brackets hold non-standard residues; d marks the D form. Peptide text beside a SMILES is read from it. * marks the point of attachment. X5 = O=C([C@H](Cc1ccc(CO)cc1)N[*:1])[*:2]; Orn(iPr) = CC(C)NCCC[C@H](N)C(=O)O; Benzoyl(4-F) = O=C(c1ccc(F)cc1)*; Oxazole2carbonyl = O=C(c1ncco1)*; 3Pal = N[C@@H](Cc1cccnc1)C(=O)O; Agp = N=C(N)NC[C@H](N)C(=O)O; ΔPro = O=C(O)[C@@H]1C=CCN1; Dap = NC[C@H](N)C(=O)O; Bz = O=C(c1ccccc1)*

Results on three molecules are retold here after patent US9969775B2, “CGRP antagonist peptides” (Ferring B.V., priority 2015, dated 2018).

T2 sequence (Q16602 23-461): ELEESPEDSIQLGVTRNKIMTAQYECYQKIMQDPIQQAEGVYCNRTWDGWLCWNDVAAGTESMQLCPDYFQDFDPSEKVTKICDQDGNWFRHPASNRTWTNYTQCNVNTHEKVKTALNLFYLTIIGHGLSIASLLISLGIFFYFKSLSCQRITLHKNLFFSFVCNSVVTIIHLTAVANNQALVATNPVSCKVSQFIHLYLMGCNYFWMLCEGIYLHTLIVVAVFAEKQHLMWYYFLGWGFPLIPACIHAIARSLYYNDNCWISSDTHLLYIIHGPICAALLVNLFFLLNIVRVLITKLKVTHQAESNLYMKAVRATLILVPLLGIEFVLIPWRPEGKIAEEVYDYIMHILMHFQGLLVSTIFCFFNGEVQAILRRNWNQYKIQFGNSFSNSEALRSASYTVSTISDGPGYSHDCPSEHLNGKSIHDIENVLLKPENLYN
T2 sequence (O60896 24-148): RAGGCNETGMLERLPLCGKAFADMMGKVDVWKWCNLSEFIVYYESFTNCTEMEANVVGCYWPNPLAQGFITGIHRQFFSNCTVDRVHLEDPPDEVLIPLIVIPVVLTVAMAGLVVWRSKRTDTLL
T1 sequence (Q16602 23-461): as the sequence (Q16602 23-461) above
T1 sequence (O60894 27-148): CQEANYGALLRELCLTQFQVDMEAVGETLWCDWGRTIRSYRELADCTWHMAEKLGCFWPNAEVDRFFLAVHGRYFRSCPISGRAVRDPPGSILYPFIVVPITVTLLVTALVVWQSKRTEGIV

For the molecule `CC(C)NCCC[C@@H]1NC(=O)[C@@H](NC(=O)[C@H](Cc2ccc(O)cc2)NC(=O)[C@H](NC(=O)c2ncco2)C(C)C)CSSC[C@@H](C(=O)N[C@@H](Cc2cccnc2)C(N)=O)NC(=O)[C@H](Cc2ccc(CO)cc2)NC(=O)[C@@H]2C=CCN2C(=O)CNC(=O)[C@H](C(C)C)NC(=O)[C@H](CC(=O)O)NC1=O` [Compound 70, Oxazole-2-carbonyl-D-Val-Tyr-c(Cys-Orn(iPr)-Asp-Val-Gly-Dhp-Phe(4-CH2OH)-Cys)-3Pal-NH2] (Oxazole2carbonyl-[dV]YC[Orn(iPr)]DVG[ΔPro][X5]C[3Pal]-NH2; disulfide 3-10), the Emax in assay [1] (setting [3]) and in assay [2] (setting [4]) was 100% throughout. Further, the negative logarithm of the IC50 (pIC50) in assay [1] (agonist human α-CGRP, read-out: hCGRP-R IC50 Ave) was 9.82; in assay [2] (agonist human adrenomedullin, read-out: hAM2-R IC50 Ave), 6.97. Moreover, the “selectivity ratio CGRP/AM2” value in assay [2] is 727.

In the case of `CC(C)[C@@H]1NC(=O)[C@H](CC(=O)O)NC(=O)[C@H](CNC(=N)N)NC(=O)[C@@H](NC(=O)[C@H](Cc2ccc(O)cc2)NC(=O)[C@H](NC(=O)c2ccc(F)cc2)C(C)C)CSSC[C@@H](C(=O)N[C@@H](Cc2cccnc2)C(N)=O)NC(=O)[C@H](Cc2ccccc2)NC(=O)[C@@H]2CCCN2C(=O)CNC1=O` [Ref. Cpd. 1, Bz(4-F)-D-Val-Tyr-c(Cys-Agp-Asp-Val-Gly-Pro-Phe-Cys)-3Pal-NH2, reference compound] ({Benzoyl(4-F)}-[dV]YC[Agp]DVGPFC[3Pal]-NH2; disulfide 3-10), the values for the Emax in assay [1] (setting [3]) and in assay [2] (setting [4]) were 100% and 98%, respectively.

As for `CC(C)[C@@H]1NC(=O)[C@H](CC(=O)O)NC(=O)[C@H](CN)NC(=O)[C@@H](NC(=O)[C@H](Cc2ccc(O)cc2)NC(=O)[C@H](NC(=O)c2ccccc2)C(C)C)CSSC[C@@H](C(=O)N[C@@H](Cc2cccnc2)C(N)=O)NC(=O)[C@H](Cc2ccccc2)NC(=O)[C@@H]2CCCN2C(=O)CNC1=O` [Ref. Cpd. 2, Bz-D-Val-Tyr-c(Cys-Dpr-Asp-Val-Gly-Pro-Phe-Cys)-3Pal-NH2, reference compound] (Bz-[dV]YC[Dap]DVGPFC[3Pal]-NH2; disulfide 3-10), the pIC50 in assay [1] (hCGRP-R IC50 Ave, agonist human α-CGRP) was 9.28; in assay [2] (hAM2-R IC50 Ave, agonist human adrenomedullin), 6.70. The Emax in assay [1] and in assay [2] was 100% in each case. Further, in assay [2], the “selectivity ratio CGRP/AM2” value is listed as 387.

Broadly, the pIC50 is the IC50 on a negative log10 scale, so that one unit is a factor of ten.
